The experiment relates to taurine. In words: Changes in amino acid neurotransmitter levels in the cortical area of male rats (HPLC, electrochemical detection). It counts as in vivo, rat. To be noted: male SPDR rats, intraperitoneal, 0.4% aqueous methylcellulose suspension, decapitated 30 minutes after administration, compared to vehicle control group. The protocol:
The in vivo biological effectiveness of the compounds of the present invention on the central nervous system was examined by the following experimental model.
Changes in Amino Acid Neurotransmitter Levels in the Cortical Area of Male Rats
Male SPDR rats weighing 200-250 g, were used in the experiments. Changes in the concentration of amino acid neurotransmitters were measured from cortical areas by high-performance liquid chromatography (HPLC) and electrochemical detection.
The investigations were carried out with two experimental groups wherein each group contained 8 animals. One group was administered intraperitoneally by vehicle only (control group). The other group was administered intraperitoneally by the compound of the Example 15, suspended in vehicle. The dose of administration was in the form of 0.4% aqueous methylcellulose suspension.
The animals were decapitated 30 minutes after the administration, brains have been removed and required brain regions were dissected. The tissues were stored at −70° C.
The tissues were homogenized in ice-cold 0.1 M perchlorate in 500 volume excess. […]
The tissue concentrations of the amino acids were measured by standard solutions containing amino acids with known concentration.

As for `CN1N=C(c2ccc(F)cc2)c2cc(Cl)ccc2CS1(=O)=O` [Example 16, 7-Chloro-5-(4-fluoro-phenyl)-3-methyl-1,3-dihydro-2̂,4-benzothiadiazepin-2,2-dioxide], the “concentrations of the amino acid taurine in the frontal cortex” value was “significantly increased”.

(Values after patent US20120252784A1, “2,3,4-BENZOTHIADIAZEPINE-2,2-DIOXIDE DERIVATIVES” (priority 2009, published 2012).)
